Results reported in patent US12115222B2, “Compositions and methods for improving the solubility of erectile dysfunction therapeutics” (Villya LLC, priority 2023, dated 2024).
Where a name gives a salt, the structure may show the parent alone. Read-outs that look alike come from different tables or passages of the source.

Assays:
[1] = cited from earlier work
[2] = Non-caloric sugar solubility in water and 95% ethanol
Description: In this experiment, the following sugars were compared for solubility: rubusoside, dulcoside A, rebaudioside B, dulcoside B, and rebaudioside D. Approximately 5.0 mg of each sugar was attempted to be dissolved in 0.6 mL water and vortexed for 2 minutes at room temperature.
In another experiment, 50 mg stevia was dissolved in either 2.0 mL water or 2.0 mL 95% ethanol.

[3] = cited from earlier work; remark: listed apart in the source
[4] = Excerpt: After solubilizing the sugar and the compound in ethanol or aqueous ethanol, the ethanol is evaporated for example under a high rotary vacuum. The powder resulting from the evaporation step is then resolubilized (dissolved) in water. Another solvent can be methanol at 80% methanol, 95% (ACS grade) or greater (to 100% methanol) as well as combinations of methanol and ethanol or methanol and water. After solubilizing the sugar and the compound in ethanol or aqueous ethanol, the ethanol is evaporated for example under a high rotary vacuum. The powder resulting from the evaporation step is then resolubilized (dissolved) in water.
Generally, ingredients are deposited into a sealed container with ethanol and vortex-mixed to form a solution. The solution is subjected to centrifugation. The ethanol is evaporated off and the dried mixture was dissolved in water. This mixture is centrifuged again and the supernatant is filtered through a membrane. […] In one embodiment, the admixing process involves dissolving the PSD and sugar in the ethanol while stirring and adjusting the pH as necessary to obtain complete dissolution and a clear reaction mixture. The reaction mixture can then be dried to remove the ethanol. No further water washing or filtering is needed.
In this example, an oven-dried single-neck RB flask equipped with a magnetic stir bar was used. […] The reaction mixture was vigorously stirred at room temperature for 30 min at 20° C. […] The white solid was dried using vacuum drying performed at room temperature and a high vacuum pump for about one hour to remove the ethanol (EtOH) completely using an Edvards Model #RV8 […], a Heidolph type Basis Hei-VAP Value, No. 560-00000-0101. The high vacuum pump was connected to a cooling trap and the trap was connected to the RB flask. Vacuum strength was about 1 mm Hg.
The white foamy solid was dried over a high vacuum at room temperature for an additional hour to remove the water completely, by ascertaining changes in weight loss. Drying continued until further weight loss was not observed.
Step 1: In an oven-dried single neck RB flask equipped with magnetic stir and septa (flask cap), 5 mg sildenafil (0.01054 mmol) and 16.95 mg stevioside (1:2 molar ratio) were weighed into the RB flask and dissolved in 85% ethanol (˜2.0 mL, denatured 85% ethanol) at ambient temperature. The reaction mixture was vigorously stirred at room temperature for 30 min. […] The white solid was dried over a high vacuum for an hour to remove the ethanol completely (no further reduction in weight was observed).
Step 2: The obtained white solid was then dissolved in 2.0 mL water at room temperature in an RB flask with a magnetic stir bar. The reaction mixture was stirred at ambient temperature for 30 min. […] The white foamy solid was dried over a high vacuum at room temperature for an additional hour to remove the water completely. The weight of the flask was checked while drying until no further weight loss was observed.

Nc1nc2c(ncn2COCCO)c(=O)[nH]1 [Acyclovir]
water solubility ([1]; drug alone): less than 1 mg/mL

O=C(CO)[C@@H](O)[C@H](O)[C@H](O)CO [D-fructose]
solubility of the sugar in 95% ethanol (observation) ([2]; Example 22, 200 mg, 20° C.): not soluble | solubility of the sugar in water (observation) ([2]; Example 22, 200 mg, 20° C.): soluble | Sugar Solubility in 95% EtOH [3]: Insoluble

CCCc1nc(C)c2c(=O)[nH]c(-c3cc(S(=O)(=O)N4CCN(CC)CC4)ccc3OCC)nn12 [Vardenafil HCl]
solubility in DMSO ([1]; at 28° C., solids remain present at 22° C.): soluble | solubility in chloroform [1]: insoluble | solubility of the complex in water by NMR [4]: 100%

OC[C@H]1O[C@H](O[C@]2(CCl)O[C@H](CCl)[C@@H](O)[C@@H]2O)[C@H](O)[C@@H](O)[C@H]1Cl [sucralose, 1,6-dichloro-1,6-dideoxy-β-D-fructofuranosyl-4-chloro-4-deoxy-α-D-galactopyranoside]
solubility of the sugar in 95% ethanol (observation) ([2]; 50 mg in 2.0 mL 95% ethanol): slowly soluble | time to dissolve in 95% ethanol ([2]; 50 mg in 2.0 mL 95% ethanol, room temperature): 2 h | solubility of the sugar in water (observation) ([2]; 50 mg in 2.0 mL water): soluble | Sugar Solubility in 95% EtOH ([3]; at 20° C.): 283 g/L at 20 °C | Sugar Solubility in Water ([3]; at 20° C.): 110 g/L at 20 °C

rebaudioside B
solubility of the sugar in water (observation) ([2]; approximately 5.0 mg in 0.6 mL water, vortexed 2 minutes, room temperature): insoluble in water or poorly soluble | Sugar Solubility in 95% EtOH [3]: Poorly soluble | Sugar Solubility in Water [3]: Poorly soluble

CCCc1nc(C)c2c(=O)[nH]c(-c3cc(S(=O)(=O)N4CCN(CC)CC4)ccc3OCC)nn12 [Vardenafil, 2-[2-ethoxy-5-(4-ethylpiperazin-1-yl)sulfonylphenyl]-5-methyl-7-propyl-3H-imidazo[5,1-f][1,2,4]triazin-4-one]
solubility in water ([1]; at 25° C., Estimated): 3.5 mg/L at 25° C./

C=C1C[C@@]23CC[C@H]4[C@@](C)(CCC[C@@]4(C)C(=O)O[C@@H]4O[C@H](CO)[C@@H](O)[C@H](O)[C@H]4O)[C@@H]2CC[C@]1(O[C@@H]1O[C@H](CO)[C@@H](O)[C@H](O)[C@H]1O[C@@H]1O[C@H](CO)[C@@H](O)[C@H](O)[C@H]1O)C3 [Stevioside]
Sugar Solubility in 95% EtOH [3]: 30 mg/mL | Sugar Solubility in Water [3]: 4 g/L

C=C1C[C@@]23CC[C@H]4[C@@](C)(CCC[C@@]4(C)C(=O)O[C@@H]4O[C@H](CO)[C@@H](O)[C@H](O)[C@H]4O)[C@@H]2CC[C@]1(O[C@@H]1O[C@H](CO)[C@@H](O)[C@H](O[C@@H]2O[C@H](CO)[C@@H](O)[C@H](O)[C@H]2O)[C@H]1O[C@@H]1O[C@H](CO)[C@@H](O)[C@H](O)[C@H]1O)C3 [rebaudioside A]
solubility of the sugar in 95% ethanol (observation) ([2]; 50 mg in 2.0 mL 95% ethanol): either insoluble or partially soluble | solubility of the sugar in water (observation) ([2]; 50 mg in 2.0 mL water): soluble | Sugar Solubility in 95% EtOH [3]: Poorly soluble | Sugar Solubility in Water [3]: Poorly soluble

CCCCC[C@H](O)/C=C/[C@H]1[C@H](O)CC(=O)[C@@H]1CCCCCCC(=O)O [Alprostadil, (1R,2R,3R)-3-Hydroxy-2-[(E)-(3S)-3-hydroxy-1-octenyl]-5-oxocyclopentane heptanoic acid]
solubility in DMSO [1]: soluble | solubility in distilled water ([1]; distilled water): 8000 μg per 100 mL | solubility in water ([1]; drug alone): insoluble | water solubility ([1]; drug alone): less than 1 mg/mL | solubility in ethanol, ether and ethyl acetate ([1]; printed over two lines: nearly / insoluble): insoluble in ethanol, ether | solubility of the complex in water by NMR [4]: 100%

COc1ccc(CN=c2[nH]c(N3CCC[C@H]3CO)ncc2C(=O)NCc2ncccn2)cc1Cl [Avanafil, 4-[(3-chloro-4-methoxyphenyl)methylamino]-2-[(2S)-2-(hydroxymethyl)pyrrolidin-1-yl]-N-(pyrimidin-2-ylmethyl)pyrimidine-5-carboxamide]
solubility in DMSO ([1]; at 25° C.): Soluble in DMSO (97 mg/ml | solubility in DMSO [1]: soluble | solubility in water by NMR [4]: 100%

C[C@]12CC[C@H]3[C@@H](CCC4=CC(=O)CC[C@@]43C)[C@@H]1CC[C@@H]2OC(=O)CCC1CCCC1 [testosterone cypionate]
appearance of the dried mixture dissolved in water ([4]; rubusoside 23.4 mg : testosterone cypionate 5 mg (3:1 sugar-to-drug)): white turbid solution | appearance of the dried powder in 2 mL water ([4]; testosterone cypionate:stevioside 1:10 molar): white-turbid solution

C[C@]12C=CC(=O)C=C1CC[C@@H]1[C@@H]2C(=O)C[C@@]2(C)[C@H]1CC[C@]2(O)C(=O)CO [prednisone]
appearance of the dried powder re-dissolved in 2 mL deionized water ([4]; Example 23, rubusoside 50 mg : prednisone 5 mg): white turbid mixture

OC[C@H]1O[C@@](CO)(O[C@H]2O[C@H](CO)[C@@H](O)[C@H](O)[C@H]2O)[C@@H](O)[C@@H]1O [sucrose]
Sugar Solubility in 95% EtOH [3]: Insoluble | Sugar Solubility in Water [3]: 204 g/100 g water

CC(=O)O[C@H]1C(=O)[C@@]2(C)[C@H]([C@H](OC(=O)c3ccccc3)[C@]3(O)C[C@H](OC(=O)[C@H](O)[C@@H](NC(=O)c4ccccc4)c4ccccc4)C(C)=C1C3(C)C)[C@]1(OC(C)=O)CO[C@@H]1C[C@@H]2O [Paclitaxel]
Solubility of Paclitaxel In Ethanol, With Rubusoside [4]: Soluble | Solubility of Paclitaxel In Water after first being dissolved in EtOH, With Rubusoside [4]: Insoluble | Solubility of Paclitaxel In Water, With Rubusoside [4]: Insoluble

CCCOc1ccc(S(=O)(=O)NCCC2CCCN2C)cc1-c1nc2c(CCC)nn(C)c2c(=O)[nH]1 (stereo not shown) [Udenafil]
solubility in DMSO [1]: soluble | water solubility ([1]; drug alone): about 0.0798 mg/mL

CC1(C)S[C@@H]2[C@H](NC(=O)COc3ccccc3)C(=O)N2[C@H]1C(=O)O [Penicillin V HCl, phenoxymethylpenicillinic acid]
Solubility of Penicillin V HCl In Ethanol, Without Rubusoside ([1]; Example 24): Soluble | Solubility of Penicillin V HCl In Water, Without Rubusoside ([1]; Example 24): 0.636 mg/mL or at | Solubility of Penicillin V HCl In Water, Without Rubusoside ([1]; Example 24, pH 1.8 acidified with HCl): HCl at 24 mg/100 mL | Solubility In Water, Without Rubusoside (table of Example 25) ([1]; Example 25 (acyclovir and rubusoside), at 55° C.): 1 mg/mL at 55 °C | Solubility In Water, Without Rubusoside (table of Example 25) ([1]; Example 25 (acyclovir and rubusoside), at pH 1.8): 24 mg/100 mL at | Solubility In 95% Ethanol, Without Rubusoside (table of Example 25) ([1]; Example 25 (acyclovir and rubusoside)): Soluble | Solubility In 95% Ethanol, With Rubusoside (table of Example 25) [4]: Soluble | Solubility In Water after first being dissolved in EtOH, With Rubusoside (table of Example 25) [4]: Soluble | Solubility In Water, With Rubusoside (table of Example 25) [4]: Soluble | Solubility of Penicillin V HCl In Ethanol, With Rubusoside [4]: Soluble | Solubility of Penicillin V HCl In Water after first being dissolved in EtOH, With Rubusoside [4]: Soluble | Solubility of Penicillin V HCl In Water, With Rubusoside [4]: Soluble

CN1CC(=O)N2[C@H](c3ccc4c(c3)OCO4)c3[nH]c4ccccc4c3C[C@@H]2C1=O [Tadalafil, (2R,8R)-2-(1,3-benzodioxol-5-yl)-6-methyl-3,6,17-triazatetracyclo[8.7.0.0^3, 8.0^11, 16]heptadeca-1(10),11,13,15-tetraene-4,7-dione]
solubility in water ([1]; at 25° C.): 220 mg/L at 25 °C in water | solubility in chloroform [1]: soluble | improvement in water solubility [4]: ~2.3% | appearance of the dried gel in water ([4]; Example 31, Tadalafil:Tween 80 1:5 molar, after 3 minutes): white and turbid solution | appearance of the dried mixture in 3 mL water ([4]; Example 31, tadalafil:P188:stevioside 1:10:5 molar): white turbid solution | appearance of the dried mixture in water ([4]; Example 31, tadalafil:P-188 1:10): turbid solution | appearance of the dried mixture in 2.0 mL water ([4]; Example 31, tadalafil:Tween 20 1:5 molar): white turbid solution with solids still visible | appearance of the dried mixture in 3.0 mL water ([4]; Example 31, tadalafil:glycerol:stevioside 1:20:5): white turbid solution | low-intensity drug peaks by NMR ([4]; Example 31, tadalafil:glycerol:stevioside 1:20:5, 10 mg citric acid monohydrate, pH about 3.0): 2-3% | appearance of the dried mixture in 3.0 mL water ([4]; Example 31, tadalafil:glycerol:stevioside 1:30:5, citric acid, pH about 3.0): white turbid | appearance of the dried mixture in water ([4]; Example 31, tadalafil:stevioside 1:3 molar, citric acid in step 1): white turbid solution | appearance of the dried powder in 2 mL water ([4]; Example 31, tadalafil:stevioside 1:10 molar, buffer pH 9.4 added in water): white turbid solution | appearance of the dried mixture in water ([4]; Example 31, tadalafil:stevioside 1:10 molar, carbonate buffer pH 9.4 in step 1): white and turbid | solubility of the complex in water ([4]; pH 2.5): not 100% soluble
